Data set [1] is described as follows: in vitro. The note with it: sheep. It is filed as cell-based, sheep. The method, then:
The toxicity of WZ1–WZ4 compounds towards red blood cells was tested using the erythrocyte lysis assay (ELA). Erythrocytes from fresh sheep blood (BioMaxima S.A., Poland) were centrifuged and washed with 0.85% NaCl. Next, 100 μL of a 2% suspension of red blood cells in physiological saline was added to the wells of microtiter plate. The double dilutions of compounds WZ1–WZ4 were prepared in the range of 2000–15.62 μg/mL. Appropriate controls were used to assess the hemolytic potential of tested compounds, i.e., 100% lysis of erythrocytes using 4% Triton X-100 (Pol-Aura, Różnowo, Poland) and 0% lysis in saline solution. Next, all sample plates were incubated (1 h at 37 °C), centrifuged for 10 min to separate unlysed red blood cells, and the supernatant was placed in a new plate. The ELA is a biological test by which the lytic response can be measured spectrophotometrically (at a wavelength of 450 nm) by the amount of hemoglobin released. The hemolysis percentage was calculated according to the following equation:(1) % Hemolysis = A450 of test compound treated sample − A450 of buffer treated sample/A450 of 4% Triton X100 treated samples − A450 of buffer treated sample × 100

In data set [2] the test system is ALDH1A1. Briefly: ALDH1A1 concentration by ELISA in HepG2 cells. It is filed as cell-based, human. The note with it: compound at IC25, 48 h. The method, then:
The effect of compounds WZ1–WZ4 on ALDHA1 levels was investigated (Figure 10). The Du145, HepG2 and 769-P cell lines were treated with the calculated IC25 values for each compound.
Selected cell lines, viz HepG2, Du145 and 769-P, were seeded into 6-well plates and incubated for 24 h after seeding with compounds at a concentration equal to IC25. After a further 24 h or 48 h, cells were detached with trypsin and centrifuged. The resulting cell pellet was resuspended in 0.5 mL PBS. The samples were then sonicated, and protein was determined using the Bradford method (Bio-rad; Hercules, CA, USA). Samples were equilibrated to 10 mg/mL of protein, and ALDH1A1 was determined in the samples prepared in this way. ALDH1A1 determination was performed using an ELISA (SEE824Hu; Cloud Clone Corp., Katy, TX, USA), according to the manufacturer’s protocol.
On the technique in general: ELISA stands for enzyme-linked immunosorbent assay.

Data set [3] concerns Gram-negative bacteria. Briefly: Broth microdilution, summary over reference Gram-negative bacteria. It is filed as cell-based. From the text: Reference strains of microorganisms that came from American Type Culture Collection (ATCC) (Manassas, VA, USA) were used for this study. The representative Gram-positive bacteria were as follows: Staphylococcus aureus ATCC 25923, Staphylococcus aureus ATCC 29213, Staphylococcus aureus ATCC 43300, Staphylococcus epidermidis ATCC 12228, Enterococcus faecalis ATCC 29212, Micrococcus luteus ATCC 10240, Bacillus subtilis ATCC 6633 and Bacillus cereus ATCC 10876. […]
The new compounds WZ1–WZ4 were assayed for both antibacterial and antifungal activity using the broth microdilution method in accordance with the European Committee on Antimicrobial Susceptibility Testing (EUCAST) and Clinical and Laboratory Standards Institute (CLSI) guidelines. […] The antimicrobial effect of compounds WZ1–WZ4 was determined in the concentration range from 2000 to 0.98 µg/mL.
Then, the microbial suspensions were introduced into each well of the microplate and incubated for 18–24 h at 35 °C. […] Next, the values of the minimum bactericidal concentration (MBC) and minimum fungicidal concentration (MFC) of WZ1–WZ4 were assessed. […] The lowest concentrations of compounds without microbial growth were read as MBC or MFC. […]

The values below come from article PMC10747733, “N-Substituted 2-(Benzenosulfonyl)-1-Carbotioamide Derivatives Exert Antimicrobial and Cytotoxic Effects via Aldehyde Dehydrogenase Pathway: Synthesis, In Silico and In Vitro Studies” (Pharmaceuticals, 2023).

Values after ≈ are worked out from the molar mass of the structure shown. “Also recorded” adds a separate entry of the source.

Take `O=S(=O)(NNC(=S)NC1CCCCC1)c1ccccc1` [WZ1, 2-(Benzenesulfonyl)-N-Cyclohexylhydrazine-1-Carbothioamide]: in data set [1], the hemolysis at 1 h, 15.62 μg/mL came to 0%; the hemolysis at 1 h, 31.25 μg/mL was 0%; the hemolysis at 1 h, 62.5 μg/mL is 0%; the hemolysis at 1 h, 125 μg/mL came out at 2.11%. In addition, in data set [1], the hemolysis at 1 h, 250 μg/mL came out at 7.89%; the hemolysis at 1 h, 500 μg/mL came to 14.2%; the hemolysis at 1 h, 1000 μg/mL turned out to be 18.4%; the hemolysis at 1 h, 2000 μg/mL was determined as 34.7%.
In data set [1], `CCCCNC(=S)NNS(=O)(=O)c1ccccc1` [WZ2, 2-(Benzenesulfonyl)-N-Butylhydrazine-1-Carbothioamide] displayed a hemolysis at 1 h, 15.62 μg/mL of 0%; a hemolysis at 1 h, 31.25 μg/mL of 0%; a hemolysis at 1 h, 62.5 μg/mL of 0%; a hemolysis at 1 h, 125 μg/mL of 3.15%. In data set [1], this molecule registered a hemolysis at 1 h, 250 μg/mL of 8.95%; a hemolysis at 1 h, 500 μg/mL of 19.5%; a hemolysis at 1 h, 1000 μg/mL of 27.9%; a hemolysis at 1 h, 2000 μg/mL of 36.8%. Further, the “ALDH1A1 concentration compared to control” value in data set [2] was “increase; also recorded: increased levels”.
In data set [1], `CCCCCCNC(=S)NNS(=O)(=O)c1ccccc1` [WZ3, 2-(Benzenesulfonyl)-N-Hexylhydrazine-1-Carbothioamide] registered a hemolysis at 1 h, 15.62 μg/mL of 0%; a hemolysis at 1 h, 31.25 μg/mL of 0%; a hemolysis at 1 h, 62.5 μg/mL of 0%; a hemolysis at 1 h, 125 μg/mL of 1.14%. For the same molecule, in data set [1], the hemolysis at 1 h, 250 μg/mL was determined as 11.4%; the hemolysis at 1 h, 500 μg/mL is 18.2%; the hemolysis at 1 h, 1000 μg/mL stood at 43.2%; the hemolysis at 1 h, 2000 μg/mL stood at 85.8%. Moreover, the MIC (in general, the least concentration at which growth counts as inhibited) in data set [3] (Gram-negative rods from Enterobacterales and Pseudomonas aeruginosa) fell in the range of 500 to 1000 µg/mL (≈ 1.58 to 3.17 mM). In addition, in data set [3] (remaining Gram-negative bacteria (other than B. bronchiseptica and E. coli)), it took 1000 µg/mL (≈ 3.17 mM) to inhibit growth (MIC).
In data set [1], `CNC(=S)NNS(=O)(=O)c1ccccc1` [WZ4, 2-(Benzenesulfonyl)-N-Methylhydrazine-1-Carbothioamide] displayed a hemolysis at 1 h, 15.62 μg/mL of 0%; a hemolysis at 1 h, 31.25 μg/mL of 0%; a hemolysis at 1 h, 62.5 μg/mL of 0%; a hemolysis at 1 h, 125 μg/mL of 3.16%. In data set [1], this molecule showed a hemolysis at 1 h, 250 μg/mL of 15.8%; a hemolysis at 1 h, 500 μg/mL of 45.3%; a hemolysis at 1 h, 1000 μg/mL of 88.4%; a hemolysis at 1 h, 2000 μg/mL of 100%. Moreover, the “ALDH1A1 concentration compared to control” value in data set [2] is “increase; also recorded: increased levels”.
